Results published in US8685974B2 (Bayer CropScience AG, priority 2009, dated 2014).
Several values for one entry are separate records, joined by “and”; a condition that tells them apart may be missing. Equal values may be shown once. Read-outs that look alike come from different tables or passages of the source. Marks after values point to notes of the source that are not given here.

Key:
Fusarium graminearum = type: cell-based; settings: 50 μM; for % Inhibition of DON/AcDON at 50 μM: 7 days at 28° C.
[1] = logP by HPLC on reversed phase columns, method [a] (pH 2.3); type: physicochemical; settings: method [a]: pH 2.3, 0.1% phosphoric acid and acetonitrile as eluent; main isomer
Fusarium proliferatum = assay: Production of fumonisin FB1 by Fusarium proliferatum (microtiter plate, HPLC-MS/MS and OD620); type: cell-based; settings: for % inhibition FB1 production at 50 μM: 5 days at 20° C., HPLC-MS/MS; for % inhibition fungal growth at 50 μM: Fusarium proliferatum, OD620 at start and after 5 days
Pyrenophora teres = assay: In vivo test on Pyrenophora teres (barley net blotch); settings: dose of 500 ppm; barley plants; grading 12 days after contamination
In short: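 Barley plants (Plaisant) grown at 12° C. sprayed at 1-leaf stage with compound in acetone/Tween/DMSO diluted in water; 24 h later inoculated with P. teres spores (12,000 spores/ml). Incubated 24 h at ~20° C., 100% RH, then 12 days at 80% RH; graded 12 days post-inoculation against untreated controls.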

Alternaria solani = assay: Alternaria test (tomato) / protective; type: in vivo; settings: 500 ppm active compound, protective spray, evaluated 7 days after inoculation
In short: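 Young tomato plants sprayed protectively with compound formulated in DMF with alkylaryl polyglycol ether emulsifier and diluted in water to the application rate. After inoculation, plants held at 96% rel. humidity and 20° C. Efficacy scored 7 days post-inoculation: 0% equals untreated control, 100% no infection.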

Leptosphaeria nodorum = Leptosphaeria nodorum test (wheat) / protective; type: in vivo; settings: 500 ppm active compound, protective spray, evaluated 7-9 days after inoculation
Method: Leptosphaeria nodorum Test (Wheat)/Protective
Solvent: 49 parts by weight of N,N-dimethylformamide
Emulsifier: 1 part by weight of alkylaryl polyglycol ether
To produce a suitable preparation of active compound, 1 part by weight of active compound is mixed with the stated amounts of solvent and emulsifier, and the concentrate is diluted with water to the desired concentration.
To test for protective activity, young wheat plants are sprayed with the preparation of active compound at the stated application rate. […] The plants are then placed in a greenhouse at 90% rel. atmospheric humidity and a temperature of 22° C.
Evaluation is carried out 7-9 days after the inoculation. 0% means an efficacy which corresponds to that of the control, whereas an efficacy of 100% means that no infection is observed.

Structure (SMILES)	% Inhibition of fungal growth at 50 μM (Fusarium graminearum)	% Inhibition of DON/AcDON at 50 μM (Fusarium graminearum)	protection (Pyrenophora teres)	log p (pH 2.7)	efficacy (Alternaria solani)	efficacy (Leptosphaeria nodorum)	other results
CCC(C)n1cc(-c2ccncc2)c(-c2ccc(C(F)(F)F)s2)n1 (stereo not drawn) [Example 400]	0%	99%					log p [1]: 2.58^[a]
Clc1ccc(-c2nn(Cc3ccccc3)cc2-c2ccncn2)s1 [Example 5]			70%	3.41^[b]			% inhibition FB1 production at 50 μM (Fusarium proliferatum): 81%; % inhibition fungal growth at 50 μM (Fusarium proliferatum): 0%; logP value of the minor isomer (in parenthesis in column Isomer ratio [d]) (minor isomer, main value of the example measured by method [b], pH 2.7): (3.17)
CCC(C)n1cc(-c2ccncc2)c(-c2ccc(F)s2)n1 (stereo not drawn) [Example 106]	98%	99%		1.78^[b]	100%		% inhibition FB1 production at 50 μM (Fusarium proliferatum): 98%; % inhibition fungal growth at 50 μM (Fusarium proliferatum): 39%
CCC(C)n1cc(-c2ccnc(NC(C)=O)c2)c(-c2ccc(Cl)s2)n1 (stereo not drawn) [Example 110]	99%	100%	100%	2.94^[b]	95%	95%	% inhibition FB1 production at 50 μM (Fusarium proliferatum): 99%; % inhibition fungal growth at 50 μM (Fusarium proliferatum): 86%
CC(C)Cn1cc(-c2ccnc(NC(C)C)n2)c(-c2ccc(Cl)s2)n1 [Example 411]	98%	99%					log p [1]: 4.34^[a]
CC(C)n1nc(-c2ccc(Cl)s2)c(-c2ccncc2)c1C1CC1 [Example 418]							log p [1]: 2.44^[a]
CC#Cc1[nH]nc(-c2ccc(Cl)s2)c1-c1ccncc1 [Example 419]							log p [1]: 1.44^[a]
CC(C)Cn1cc(-c2ccnc(NC(=O)C(C)C)n2)c(-c2ccc(Cl)s2)n1 [Example 98]							% inhibition FB1 production at 50 μM (Fusarium proliferatum): 97%; % inhibition fungal growth at 50 μM (Fusarium proliferatum): 4%; log p (pH 2.3): 3.67^[a]
CCC(C)n1nc(C2CC2)c(-c2ccncc2)c1-c1ccc(Cl)s1 (stereo not drawn) [Example 415]							log p [1]: 2.73^[a]
CCC(C)n1ncc(-c2ccncc2)c1-c1ccc(F)s1 (stereo not drawn) [Example 107]	86%	100%		1.69^[b]			% inhibition FB1 production at 50 μM (Fusarium proliferatum): 80%; % inhibition fungal growth at 50 μM (Fusarium proliferatum): 1%
CC(C)Cn1cc(-c2ccnc(O)n2)c(-c2ccc(Cl)s2)n1 [Example 398]							log p [1]: 2.62^[a]
CCn1cc(-c2ccnc(N)c2)c(-c2ccc(Cl)s2)n1 [Example 307]	45%	80%	80% and 95%	1.54^[b]	80% and 94%	78%	
FC(F)(F)c1ccc(-c2c(-c3ccncc3)cnn2C2CCCCO2)s1 (stereo not drawn) [Example 403]							log p [1]: 1.94^[a]
CCC(=O)Nc1cc(-c2cn(CC)nc2-c2ccc(Cl)s2)ccn1 [Example 263]	100%	99%	90%	2.4^[b]	95%	80%	
CCC(C)C(=O)Nc1cc(-c2cn(CC)nc2-c2ccc(Cl)s2)ccn1 (stereo not drawn) [Example 252]	99%	99%	100%	3.13^[b]	95%	70%	
CC(C)n1cc(-c2ccnc(NC(=O)C3CC3)c2)c(-c2ccc(Cl)s2)n1 [Example 247]	91%	99%	100%	2.94^[b]	95%	80%	
CCC(=O)Nc1cc(-c2cn(C(C)C)nc2-c2ccc(Cl)s2)ccn1 [Example 246]	91%	99%	100%	2.78^[b]	95%	90%	
CCC(C)n1cc(-c2ccncc2)c(-c2ccc(Br)s2)n1 (stereo not drawn) [Example 354]	97%	99%	95%	2.15^[b]	90%	70%	

Structure (SMILES)	% Inhibition of fungal growth at 50 μM (Fusarium graminearum)	% Inhibition of DON/AcDON at 50 μM (Fusarium graminearum)	protection (Pyrenophora teres)	log p (pH 2.7)	efficacy (Alternaria solani)	efficacy (Leptosphaeria nodorum)	other results
COc1ccc(Cn2nc(-c3ccc(Cl)s3)c(-c3ccncc3)c2C2CC2)cc1 [Example 101]				2.69^[b]			% inhibition FB1 production at 50 μM (Fusarium proliferatum): 87%; % inhibition fungal growth at 50 μM (Fusarium proliferatum): 0%
CC(C)n1cc(-c2ccncc2)c(-c2ccc(Br)s2)n1 [Example 387]	93%	99%	80%	1.88^[b]	100%	90%	
CC(C)n1cc(-c2ccncc2)c(-c2ccc(F)s2)n1 [Example 108]	99%	100%		1.53^[b]	100%		% inhibition FB1 production at 50 μM (Fusarium proliferatum): 100%; % inhibition fungal growth at 50 μM (Fusarium proliferatum): 25%
CC(C)Cn1cc(-c2cc(O)ncn2)c(-c2ccc(Cl)s2)n1 [Example 422]							log p [1]: 2.84^[a]
CC(=O)n1cc(-c2ccncn2)c(-c2ccc(Cl)s2)n1 [Example 4]				2.92^[b]			% inhibition FB1 production at 50 μM (Fusarium proliferatum): 89%; % inhibition fungal growth at 50 μM (Fusarium proliferatum): 22%
CCn1cc(-c2ccnc(NC(=O)CC(C)C)c2)c(-c2ccc(Cl)s2)n1 [Example 286]	68%	99%	80%	3.15^[b]	90%	90%	
CCC(C)n1cc(-c2ccnc(C#N)c2)c(-c2ccc(Cl)s2)n1 (stereo not drawn) [Example 97]				4.41^[b]	90%		% inhibition FB1 production at 50 μM (Fusarium proliferatum): 99%; % inhibition fungal growth at 50 μM (Fusarium proliferatum): 17%
CCC(C)n1cc(-c2ccnc(NC(=O)C(C)C)c2)c(-c2ccc(Cl)s2)n1 (stereo not drawn) [Example 234]	45%	96%	95%	3.63^[b]	90%	80%	
CCC(C)n1cc(-c2ccncc2)c(-c2cc(Cl)cs2)n1 (stereo not drawn) [Example 167, 4-[1-sec-Butyl-3-(4-chloro-2-thienyl)-1H-pyrazol-4-yl]pyridine]			95%		90%	90%	chromatographic logP (physchem; pH 2.7): 1.86; logP value of the minor isomer (pH 2.7): (1.76)
Cn1cc(-c2ccnc(NC(=O)C3CC3)c2)c(-c2ccc(Cl)s2)n1 [Example 279]	100%	98%	95%	2.16^[b]	80%	70%	
CC(C)C(=O)Nc1cc(-c2cn(C(C)C)nc2-c2ccc(Cl)s2)ccn1 [Example 257]	81%	99%	95%	3.21^[b]	95%	90%	
CC(C)Cn1cc(-c2ccncc2)c(-c2ccc(Br)s2)n1 [Example 405]	90%	99%	70%	2.1^[b]	94%	94%	logP value of the minor isomer (pH 2.7): (1.98)
CC(C)CC(=O)Nc1cc(-c2cn(C(C)C)nc2-c2ccc(Cl)s2)ccn1 [Example 258]	54%	94%	100%	3.63^[b]	95%	70%	
CC(C)Cn1nc(-c2ccc(Cl)s2)c(-c2ccncc2)c1C1CC1 [Example 414]	11%	84%					log p [1]: 2.7^[a]
CCC(=O)Nc1cc(-c2cn(C(C)CC)nc2-c2cc(Cl)cs2)ccn1 (stereo not drawn) [Example 164, N-{4-[1-sec-Butyl-3-(4-chloro-2-thienyl)-1H-pyrazol-4-yl]pyridin-2-yl}propanamide]			100%		90%	95%	chromatographic logP (physchem; pH 2.7): 3.07; chromatographic logP (physchem; pH 7.8): 3.59
CCn1cc(-c2ccnc(NC(C)=O)c2)c(-c2ccc(Cl)s2)n1 [Example 284]	100%	99%	100%	2.1^[b]	95%	80%	
CC(=O)Nc1cc(-c2cn(C)nc2-c2ccc(Cl)s2)ccn1 [Example 287]	94%	99%	95%	1.79^[b]	90%	80%	
